From paper PMC11791975, “Highly Sensitive In Vivo Imaging of Bacterial Infections with a Hydrophilicity‐Switching, Self‐Immobilizing, Near‐Infrared Fluorogenic β‐Lactamase Probe Enriched within Bacteria” (Advanced Science, 2024) come the findings set out here.

Assay [1] addresses T1, New Delhi metallo β lactamase-1 (NDM-1 bla) (Klebsiella pneumoniae, UniProt C7C422).
T1 construct: gene blaNDM-1
Briefly: in vitro β-lactamase inhibition assay (IC50, Figure S29; also cites ref […]). It is filed as biochemical.

Assay [2] addresses TEM-1 β-lactamase (TEM-1 bla) (Escherichia coli, UniProt P62593). Briefly: biochemical. More on the design: beta-lactamase inhibition, fluorogenic substrate CDC-1 hydrolysis, initial velocity, 10 min preincubation. The conditions noted are these: read-out: IC50 (μM) ebselen TEM-1. As to the method:
(§1) 36 and imaged with an Odyssey SA near-infrared two-color laser imaging system, followed by staining with Coomassie brilliant blue. Assay for IC50 of β-Lactamase Inhibitor The IC50 was determined following the reported protocol with minor modifications. […] The initial velocity (V0) was calculated using the linear portions of the curves. Each experiment was triplicated. The IC50 was obtained by fitting a dose-response curve using Graph Pad Prism 7 software.

Assay [3] concerns the target T1, New Delhi metallo β lactamase-1 (NDM-1 bla). Briefly: biochemical. More on the design: beta-lactamase inhibition, fluorogenic substrate CDC-1 hydrolysis, initial velocity, 10 min preincubation. On the procedure:
as §1

Where only a bound is given, the exact number is not on record here.

T1 sequence (C7C422 29-270 limits assumed): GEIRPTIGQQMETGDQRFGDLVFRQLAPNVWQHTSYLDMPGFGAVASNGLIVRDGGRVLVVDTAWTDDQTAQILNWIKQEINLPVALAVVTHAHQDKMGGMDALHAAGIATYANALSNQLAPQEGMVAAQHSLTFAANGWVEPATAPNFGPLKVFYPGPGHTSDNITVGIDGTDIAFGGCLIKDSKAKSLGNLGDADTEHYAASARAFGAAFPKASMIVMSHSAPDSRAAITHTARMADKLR
Chain of TEM-1 β-lactamase (TEM-1 bla) (P62593 24-286 limits assumed): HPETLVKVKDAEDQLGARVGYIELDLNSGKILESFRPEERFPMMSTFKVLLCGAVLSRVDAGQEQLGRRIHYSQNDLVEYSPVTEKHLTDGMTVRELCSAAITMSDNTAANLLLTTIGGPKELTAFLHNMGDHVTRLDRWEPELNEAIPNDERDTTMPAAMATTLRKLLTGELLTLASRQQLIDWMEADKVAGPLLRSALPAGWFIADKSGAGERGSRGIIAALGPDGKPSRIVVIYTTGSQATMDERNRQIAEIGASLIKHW

Turning to `O=c1c2ccccc2[se]n1-c1ccccc1` [ebselen], the IC50 in assay [1] is 0.508 µM; in assay [2], over 25 µM. For the compound `NC(=O)[C@@H]1CC[C@@H]2CN1C(=O)N2OS(=O)(=O)O` [avibactam], the IC50 in assay [3] is over 25 µM.

A word on the IC50: it is the concentration at which inhibition is half-maximal.
